Read-outs that look alike come from different tables or passages of the source. Marks after values point to notes of the source that are not given here.
Columns and labels:
Set-up in all cases: key: ++++: excellent (no pausing observed); +++: very good (with slight pausing); ++: Good, full-length products with significant pausing; +: significant pausing, no full-length product but at least one 2′F-araN incorporation detected
[1] = biological target: T1, Bst DNA polymerase large fragment (Bst) (Geobacillus stearothermophilus, UniProt P52026); assay: Primer extension assay with Bst DNA polymerase large fragment; format: biochemical; settings: for Incorporation of three 2′F-araTTP / 2′F-araCTP (incorporation efficiency): DNA template PF22 (2′F-araTTP) or PF24 (2′F-araCTP); for Enzymatic activity during primer extension reactions: plus dATP, dGTP
T1 construct: consists of the portion of the Bacillus stearothemmophilus DNA polymerase protein responsible for 5′->3′ polymerase activity but lacks the 5′->3′ exonuclease domain; purchased New England Biolabs
T1 sequence (P52026 289-876 limits assumed): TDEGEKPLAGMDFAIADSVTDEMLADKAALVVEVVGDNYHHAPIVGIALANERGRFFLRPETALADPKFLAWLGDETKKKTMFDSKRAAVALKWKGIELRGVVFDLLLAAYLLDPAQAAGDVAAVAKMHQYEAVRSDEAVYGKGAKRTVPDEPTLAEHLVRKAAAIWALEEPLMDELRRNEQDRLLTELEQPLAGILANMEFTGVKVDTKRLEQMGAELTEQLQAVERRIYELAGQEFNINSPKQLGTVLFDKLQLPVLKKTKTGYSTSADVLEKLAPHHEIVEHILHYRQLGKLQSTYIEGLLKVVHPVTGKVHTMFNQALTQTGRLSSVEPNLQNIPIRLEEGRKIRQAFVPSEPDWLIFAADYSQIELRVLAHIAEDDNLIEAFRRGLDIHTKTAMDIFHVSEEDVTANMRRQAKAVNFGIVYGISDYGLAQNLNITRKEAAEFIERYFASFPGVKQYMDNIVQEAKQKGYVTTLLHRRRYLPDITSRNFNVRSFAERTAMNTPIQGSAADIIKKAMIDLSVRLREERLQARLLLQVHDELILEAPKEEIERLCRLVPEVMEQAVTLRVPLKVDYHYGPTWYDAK
Experimental: (§1) Various different types of DNA polymerases were assessed, including the mesophilic enzyme Klenow fragment of DNA pol I (3′→5′ exo-) (“Kf”); the thermophilic DNA polymerases DV, 9N, Taq, Bst pol I, Th and Ph; and the viral reverse transcriptases HIV RT and MMLV. Kf is a genetically engineered proteolytic product of E. coli pol A gene that encodes DNA polymerase I which retains polymerase activity but has a mutation which abolishes the 3′->5′ and 5′->3′ exonuclease activities. DV is a genetically engineered DNA polymerase purified from a strain of E. coli that carries the DV DNA polymerase gene from Pyrococcus species GB-D. The gene has been engineered to eliminate 3′->5′ proofreading exonuclease activity. 9N is a genetically engineered DNA polymerase that has decreased 3′->5′ proofreading exonuclease activity. 9N is purified from a strain of E. coli that carries a modified 9° N DNA polymerase gene from Thermococcus species (strain 9° N-7). […] Taq polymerase is isolated from E. coli engineered to express Taq polymerase from Thermus aquaticus YT-1. Bst DNA polymerase (Large fragment) is a genetically engineered polymerase that consists of the portion of the Bacillus stearothemmophilus DNA polymerase protein responsible for 5′->3′ polymerase activity but lacks the 5′->3′ exonuclease domain. Th DNA polymerase is a genetically engineered, archaeon-derived DNA polymerase that is a variant of the 9N polymerase described above. The recombinant protein is isolated from E. coli engineered to express 9° NA485L (exo-) DNA polymerase gene, a genetic variant of the native DNA polymerase from Thermococcus species 9° N-7. Ph is a recombinant DNA polymerase that consists of a novel Pyrococcus-like enzyme fused with a double-strand DNA-binding and processivity-enhancing domain.
(§2) Primer extension assays were used to assess the incorporation of 2′F-araNTP on the various DNA templates (Table 1). The DNA primer (PF20) was first radioactively labeled at the 5′-hydroxyl terminus with a radioactive phosphorus probe and the enzyme T4 polynucleotide kinase (T4 PNK) (see Example 1 for General Methods). To assess the incorporation of 2′F-araNTPs, the primer and template were annealed, and the nucleoside 5′-triphosphates added in the presence of enzyme under the conditions specified in Table 2. Time points were obtained by analyzing small aliquots from the reaction mixture through polyacryamide gel electrophoresis (PAGE) and autoradiography.
(§3) Unless otherwise noticed in the Examples described below, the conditions used in the primer extension assays, such as dNTP concentration, reaction temperatures, concentration of Mg^2+, and reaction buffers (provided by the manufacturers, except for the HIV buffer which was prepared in-house) are shown in Table 2.
Primer extension assays were used to assess the incorporation of 2′F-araTTP on the DNA template (PF22). The DNA primer (PF20) was first radioactively labeled at the 5′-hydroxyl terminus with a radioactive phosphorus probe and the enzyme T4 polynucleotide kinase (T4 PNK) according to the manufacturer's specifications (MBI Fermentas Life Sciences, Burlington, ON). Incorporation of the ^32P label was accomplished in reaction mixtures consisting of DNA substrate (200 pmol), 2 μl loxreaction buffer (Buffer A for forward reaction: 500 mM Tris-HCl, pH 7.6 at 25° C., 100 mM MgCl2, 50 mM DTT, 1 mM spermidine and 1 mM EDTA), 1 μl T4 PNK enzyme solution (10 U/1 μl in a solution of 20 mM Tris-HCl, pH 7.5, 25 mM KCl, 0.1 mM EDTA, 2 mM DTT and 50% glycerol), 6 μl [γ-^32P]-ATP solution (6000 Ci/mmol, 10 mCi/ml; Amersham Biosciences, Inc.) and autoclaved sterile water to a final volume of 20 μl. The reaction mixture was incubated for about 45-60 min at 37° C., followed by a second incubation for 10 min at 95° C. to heat denature and deactivate the kinase enzyme.

Taq DNA polymerase (Taq) = biological target: T2, Taq DNA polymerase (Taq) (Thermus aquaticus, UniProt P19821); assay: Primer extension assay with Taq DNA polymerase; format: biochemical, Thermus aquaticus YT-1; settings: for Incorporation of three 2′F-araTTP / 2′F-araCTP (incorporation efficiency): DNA template PF22 (2′F-araTTP) or PF24 (2′F-araCTP); for Enzymatic activity during primer extension reactions: plus dATP, dGTP
T2 construct: purchased New England Biolabs; host or cells: E. coli
T2 sequence (P19821 whole entry): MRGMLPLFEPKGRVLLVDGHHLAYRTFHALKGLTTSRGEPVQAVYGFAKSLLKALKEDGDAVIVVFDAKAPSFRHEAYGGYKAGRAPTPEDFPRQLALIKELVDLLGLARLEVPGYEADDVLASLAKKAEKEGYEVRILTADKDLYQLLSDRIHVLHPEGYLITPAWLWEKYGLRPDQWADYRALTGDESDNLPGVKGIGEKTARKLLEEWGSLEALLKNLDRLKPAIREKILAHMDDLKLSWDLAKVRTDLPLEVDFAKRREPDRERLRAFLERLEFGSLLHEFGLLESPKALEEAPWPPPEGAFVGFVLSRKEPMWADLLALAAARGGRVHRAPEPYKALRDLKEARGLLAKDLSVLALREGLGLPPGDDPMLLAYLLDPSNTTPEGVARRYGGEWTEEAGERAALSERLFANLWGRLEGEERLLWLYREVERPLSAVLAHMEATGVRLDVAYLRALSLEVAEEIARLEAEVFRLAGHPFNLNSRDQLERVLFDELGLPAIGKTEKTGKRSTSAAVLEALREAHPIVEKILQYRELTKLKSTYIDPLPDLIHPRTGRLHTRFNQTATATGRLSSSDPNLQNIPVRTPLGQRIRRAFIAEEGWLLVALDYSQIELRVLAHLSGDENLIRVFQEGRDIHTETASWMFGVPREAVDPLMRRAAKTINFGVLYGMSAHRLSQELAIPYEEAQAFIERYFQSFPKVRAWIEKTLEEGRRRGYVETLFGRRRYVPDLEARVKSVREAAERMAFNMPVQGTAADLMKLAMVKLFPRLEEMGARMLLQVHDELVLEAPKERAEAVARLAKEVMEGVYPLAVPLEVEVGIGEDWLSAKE
Experimental: as §1, §2, §3
Primer extension assays were used to assess the incorporation of 2′F-araTTP on the DNA template (PF22). The DNA primer (PF20) was first radioactively labeled at the 5′-hydroxyl terminus with a radioactive phosphorus probe and the enzyme T4 polynucleotide kinase (T4 PNK) according to the manufacturer's specifications (MBI Fermentas Life Sciences, Burlington, ON). […]

[2] = tested on: Phusion™ High-Fidelity DNA polymerase (Ph); assay: Primer extension assay with Phusion High-Fidelity DNA polymerase; format: biochemical; settings: 55° C.; for Incorporation of three 2′F-araTTP / 2′F-araCTP (incorporation efficiency): DNA template PF22 (2′F-araTTP) or PF24 (2′F-araCTP); for Enzymatic activity during primer extension reactions: plus dATP, dGTP
Experimental: as §1, §2
as §3, with “2. […]” for “2.”

[3] = biological target: T3, Klenow fragment DNA polymerase (3′→ 5′ exo-) (Kf) (Escherichia coli, UniProt P00582, D355A/E357A); format: biochemical, E. coli; settings: 37° C.; for Incorporation of three 2′F-araTTP / 2′F-araCTP (incorporation efficiency): DNA template PF22 (2′F-araTTP) or PF24 (2′F-araCTP); for Enzymatic activity during primer extension reactions: plus dATP, dGTP
T3 construct: the mesophilic enzyme Klenow fragment of DNA pol I (3′→5′ exo-) (“Kf”); purchased New England Biolabs
T3 sequence (P00582 324-928 D355A/E357A): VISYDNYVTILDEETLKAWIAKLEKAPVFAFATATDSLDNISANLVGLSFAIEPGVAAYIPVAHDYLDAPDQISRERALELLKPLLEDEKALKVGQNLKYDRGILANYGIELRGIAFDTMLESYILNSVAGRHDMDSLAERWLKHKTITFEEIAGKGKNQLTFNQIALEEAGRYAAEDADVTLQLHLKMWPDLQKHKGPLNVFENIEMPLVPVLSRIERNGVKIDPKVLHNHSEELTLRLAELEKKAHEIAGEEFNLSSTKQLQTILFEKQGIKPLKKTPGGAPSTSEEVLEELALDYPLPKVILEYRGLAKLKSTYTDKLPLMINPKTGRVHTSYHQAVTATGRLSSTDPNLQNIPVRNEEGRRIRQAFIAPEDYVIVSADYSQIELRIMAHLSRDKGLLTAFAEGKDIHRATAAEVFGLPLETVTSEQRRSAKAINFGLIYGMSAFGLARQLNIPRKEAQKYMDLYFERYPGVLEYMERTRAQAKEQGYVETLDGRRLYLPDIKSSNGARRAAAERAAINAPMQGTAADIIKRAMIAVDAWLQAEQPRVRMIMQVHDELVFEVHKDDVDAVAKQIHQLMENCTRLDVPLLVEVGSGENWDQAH
Experimental: as §1, §2
as §3, with “2. […]” for “2.”

[4] = Example 3, DNA template PF24, 3x 2′F-araCTP, dTTP, 55° C.
[5] = Example 3, DNA template PF24, 3x 2′F-araCTP, dTTP
[6] = Example 2, DNA template PF22, 3x 2′F-araTTP, dCTP

Row | SMILES | Incorporation of three 2′F-araTTP / 2′F-araCTP (incorporation efficiency) ([1]; 37° C.) | Incorporation of three 2′F-araTTP / 2′F-araCTP (incorporation efficiency) ([1]; 55° C.) | Enzymatic activity during primer extension reactions [1, 4] | Incorporation of three 2′F-araTTP / 2′F-araCTP (incorporation efficiency) (Taq DNA polymerase (Taq); 37° C.) | Incorporation of three 2′F-araTTP / 2′F-araCTP (incorporation efficiency) (Taq DNA polymerase (Taq); 55° C.) | Enzymatic activity during primer extension reactions (Taq DNA polymerase (Taq); [4]) | Incorporation of three 2′F-araTTP / 2′F-araCTP (incorporation efficiency) [2] | Enzymatic activity during primer extension reactions [2, 5] | Incorporation of three 2′F-araTTP / 2′F-araCTP (incorporation efficiency) [3] | Enzymatic activity during primer extension reactions [3, 5] | Enzymatic activity during primer extension reactions ([1]; Example 2, DNA template PF22, 3x 2′F-araTTP, dCTP, 55° C.) | Enzymatic activity during primer extension reactions (Taq DNA polymerase (Taq); Example 2, DNA template PF22, 3x 2′F-araTTP, dCTP, at 37° C.) | Enzymatic activity during primer extension reactions [2, 6] | Enzymatic activity during primer extension reactions [3, 6]
1 | Nc1ccn([C@@H]2O[C@H](COP(=O)(O)OP(=O)(O)OP(=O)(O)O)[C@@H](O)[C@@H]2F)c(=O)n1 [2′F-araCTP, 1-(2-deoxy-2-fluoro-β-D-arabinofuranosyl)cytosine 5′-triphosphate] | None | ++++ | ++++ | ++ | ++++ | ++++ | ++++ | ++++ | ++ | ++ | – | – | – | –
2 | Cc1cn([C@@H]2O[C@H](COP(=O)(O)OP(=O)(O)OP(=O)(O)O)[C@@H](O)[C@@H]2F)c(=O)[nH]c1=O [2′F-araTTP, 1-(2-deoxy-2-fluoro-β-D-arabino-furanosyl)thymine 5′-triphosphate] | ++ | +++ | – | ++ | – | – | ++++ | – | ++ | – | +++ | ++^b | ++++ | ++

Reference: patent publication US20090298708A1, “2'-DEOXY-2'-FLUORO-BETA-D-ARABINONUCLEOSIDE 5'-TRIPHOSPHATES AND THEIR USE IN ENZYMATIC NUCLEIC ACID SYNTHESIS” (priority 2006, published 2009)
